One data set deals with mice. The experiment in a line: Acute toxicity (dead/treated animals). In kind it is in vivo. As to the method:
The SMA inhibiting effect and the acute toxicity data (dead/treated animals, shown in brackets) of the new compounds are provided in Table II.
The experiments were performed according to the method of S.Irwin [Psychopharm. 13, 222 (1968)].

The test system of data set [1] is stereotypy induced by amphetamine. Briefly: Potentiation of the stereotypy induced by amphetamine, scale of Constall and Naylor. The data set is classed as in vivo. The following applies: ip; 10 mg/kg i.p. + amphetamine 3 mg/kg s.c. As to the method: The potentiation of the stereotypy evoked by amphetamine was evaluated according to the scale of Constall and Naylor (Eur. J. Pharmacol. 18, 95, 1972).
*10 mg/kg i.p. + amphetamine 3 mg/kg s.c.

Data set [2] relates to convulsions evoked by pentetrazole. The experiment in a line: Inhibition of pentetrazole-evoked convulsions, method of Goodmann et al. The data set is classed as in vivo. To be noted: Mus musculus, ip; mice, 30 mg/kg i.p.; 50 mg/kg i.v. pentetrazole. Here is the method: The compounds of general formula (I) exert a moderate anticonvulsive effect, too. This latter was measured in mice applying the method of Goodmann et al.[J. Pharmacol. Exp. Ther. 106, 319, (1952)]. The convulsions evoked by 50 mg/kg i.v. of pentetrazole were inhibited by 30-40% and 50-55% after the i.p. administration of 30 mg/kg of the compounds of Examples 10., 11., 13., 19., 28., 35, 40., and Examples 34 and 38, respectively.

Data set [3] has as its system hippocampal CA1 field potentials (glutamate acting mainly through AMPA receptors). The experiment in a line: Inhibition of CA1 field potentials in hippocampal slices (glutamatergic transmission), method of Tarnawa et al. Set-up: species or system rat. The following applies: for Inhibition (%) 30 minutes after drug administration / Inhibition (%) 60 minutes after drug administration / Inhibition (%) after 30 minutes wash-out / efficacy compared to GYKI-52466: 50 μM; for Inhibition (%) after 30 minutes wash-out: *p < 0.05 compared to the 60 minutes value; for duration of action compared to known molecules / GYKI-52466 / efficacy compared to GYKI-52466: hippocampal slices; for effect of 30 minutes wash-out on the inhibition: wash-out lasting 30 minutes vs preceding 60 minutes incubation. As to the method:
The effects of the compounds on the glutamatergic transmission were studied in hippocampal slices applying the method of Tarnawa et al. (Acta Physiol. Hung., 79, 163, 1992). 400 μm thick slices were prepared from rat brain and maintained in a chamber of interface type under simulated […] conditions. The Schaffer collaterals were stimulated and field potentials were recorded from the pyramidal cells of the hippocampal CA1 region. The neurotransmitter involved in this process is glutamate acting mainly through AMPA receptors.

In the case of `COc1ccc(/C=C/C2=NNC(C)Cc3cc4c(cc32)OCO4)cc1OC` (centres unmarked) [Example 1, 1-(3,4-Dimethoxystyryl)-4-methyl-7,8-methylenedioxy-3,4-dihydro-5H-2,3-benzodiazepine], the “acute toxicity (dead/treated animals)” value with mice (i.p. 300 mg/kg) and with mice (p.o. 1000 mg/kg) was 0/5 in each case.
As for `COc1cc2c(cc1OC)C(/C=C/c1ccc3c(c1)OCO3)=NNC(C)C2` (centres unmarked) [Example 3], the “acute toxicity (dead/treated animals)” value in the data set on mice (i.p. 300 mg/kg) and with mice (p.o. 1000 mg/kg) was 0/5 in each case.
In the case of `COc1cc2c(cc1OC)C(/C=C/c1ccc(N(C)C)cc1)=NNC(C)C2` (centres unmarked) [Example 7], in data set [1], the change in vivo at 10 mg/kg worked out at 90.2%.
For the compound `CC1Cc2cc3c(cc2C(/C=C/c2ccc4c(c2)OCO4)=NN1)OCO3` (centres unmarked) [Example 8], the change in vivo at 10 mg/kg in data set [1] is 113%.
As to `CC1Cc2cc3c(cc2C(/C=C/c2ccc(N(C)C)cc2)=NN1)OCO3` (centres unmarked) [Example 9], in data set [1], the change in vivo at 10 mg/kg is 141%.
One may read the inhibition in vivo as the drop in the measured response relative to a control, in per cent. Regarding `CCOc1cc2c(cc1OCC)C(/C=C/c1ccc(N(C)C)cc1)=NNC(C)C2` (centres unmarked) [Example 10], in data set [2], the inhibition in vivo at 30 mg/kg lay within 30 to 40%. Moreover, the change in vivo at 10 mg/kg in data set [1] came to 176%.
Turning to `COc1cc2c(cc1OC)C(/C=C/c1cccc(O)c1)=NNC(C)C2` (centres unmarked) [Example 11], the inhibition in vivo at 30 mg/kg in data set [2] was in the range of 30 to 40%.
`COc1ccc(/C=C/C2=NNC(C)Cc3cc4c(cc32)OCO4)cc1C(C)C` (centres unmarked) [Example 13] showed an inhibition in vivo at 30 mg/kg in data set [2] of 30 to 40%.
As for `COc1cc2c(cc1OC)C(/C=C/c1ccccc1Br)=NNC(C)C2` (centres unmarked) [Example 14], in data set [1], the change in vivo at 10 mg/kg was determined as 113%.
Turning to `COc1ccc(/C=C/C2=NN(C(C)=O)C(C)Cc3cc4c(cc32)OCO4)c(OC)c1` (centres unmarked) [Example 19, 1-(2,4-Dimethoxystyryl)-3-acetyl-4-methyl-7,8-methylenedioxy-3,4-dihydro-5H-2,3-benzodiazepine], in data set [2], the inhibition in vivo at 30 mg/kg lay within 30 to 40%.
With `COc1cc2c(cc1OC)C(/C=C/c1ccccc1)=NN(C(C)=O)C(C)C2` (centres unmarked) [Example 20, 1-Styryl-3-acetyl-4-methyl-7,8-dimethoxy-3,4-dihydro-5H-2,3-benzodiazepine], the “acute toxicity (dead/treated animals)” value with mice (i.p. 300 mg/kg) is recorded as 1/5.
`COc1ccc(/C=C/C2=NN(C(C)=O)C(C)Cc3cc(OC)c(OC)cc32)c(OC)c1` (centres unmarked) [Example 21, 1-(2,4-Dimethoxystyryl)-3-acetyl-4-methyl-7,8-dimethoxy-3,4-dihydro-5H-2,3-benzodiazepine]: in data set [3], the “Inhibition (%) 30 minutes after drug administration” value (“Inhibition (%) 30 minutes” below) worked out at 16.1 ± 13.4%, the “Inhibition (%) 60 minutes after drug administration” value (shortened to “Inhibition (%) 60 minutes”) came out at 33.7 ± 7.60% and the “Inhibition (%) after 30 minutes wash-out” value is on record as 61.1 ± 4.56%.
With `COc1cc2c(cc1OC)C(/C=C/c1cccc(OC)c1OC)=NN(C(C)=O)C(C)C2` (centres unmarked) [Example 22, 1-(2,3-Dimethoxystyryl)-3-acetyl-4-methyl-7,8-dimethoxy-3,4-dihydro-5H-2,3-benzodiazepine], in the data set on mice (i.p. 300 mg/kg), the “acute toxicity (dead/treated animals)” value was 1/5. In data set [3], the “Inhibition (%) 30 minutes” value was determined as 4.7 ± 0.84%, the “Inhibition (%) 60 minutes” value turned out to be 37.0 ± 9.19% and the “Inhibition (%) after 30 minutes wash-out” value came to 74.3 ± 11.53%.
Take `COc1cccc(/C=C/C2=NN(C(C)=O)C(C)Cc3cc4c(cc32)OCO4)c1OC` (centres unmarked) [Example 23, 1-(2,3-Dimethoxystyryl)-3-acetyl-4-methyl-7,8-methylenedioxy-3,4-dihydro-5H-2,3-benzodiazepine]: the “acute toxicity (dead/treated animals)” value with mice (i.p. 300 mg/kg) and with mice (p.o. 1000 mg/kg) was 0/5 each time.
Turning to `CCC1c2cc(OC)c(OC)cc2C(/C=C/c2ccc([N+](=O)[O-])cc2)=NNC1C` (centres unmarked) [Example 26, 1-(4-Nitrostyryl)-4-methyl-5-ethyl-7,8-dimethoxy-3,4-dihydro-5H-2,3-benzodiazepine], the “acute toxicity (dead/treated animals)” value with mice (i.p. 300 mg/kg) and in the data set with mice (p.o. 1000 mg/kg) was 0/5 in each case.
With `CC1Cc2cc3c(cc2C(/C=C/c2ccccc2)=NN1)OCO3` (centres unmarked) [Example 27, 1-Styryl-4-methyl-7,8-methylenedioxy-3,4-dihydro-5H-2,3-benzodiazepine], in the data set on mice (i.p. 300 mg/kg), the “acute toxicity (dead/treated animals)” value was 0/5. In data set [1], the change in vivo at 10 mg/kg was 183%.
Compound `COc1cc2c(cc1OC)C(/C=C/c1ccc(Cl)c(Cl)c1)=NNC(C)C2` (centres unmarked) [Example 28, 1-(3,4-Dichlorostyryl)-4-methyl-7,8-dimethoxy-3,4-dihydro-5H-2,3-benzodiazepine] displayed an inhibition in vivo at 30 mg/kg in data set [2] of 30 to 40%. The change in vivo at 10 mg/kg in data set [1] is 92.5%.
With `COc1cc2c(cc1OC)C(/C=C/c1ccc([N+](=O)[O-])cc1)=NN(C(C)=O)C(C)C2` (centres unmarked) [Example 30, 1-(4-Nitrostyryl)-3-acetyl-4-methyl-7,8-dimethoxy-3,4-dihydro-5H-2,3-benzodiazepine], the change in vivo at 10 mg/kg in data set [1] is 100%.
As for `COc1cc2c(cc1OC)C(/C=C/c1ccc(N)cc1)=NNC(C)C2` (centres unmarked) [Example 33, 1-(4-Aminostyryl)-4-methyl-7,8-dimethoxy-3,4-dihydro-5H-2,3-benzodiazepine], the change in vivo at 10 mg/kg in data set [1] stood at 202%.
Compound `CC1Cc2cc3c(cc2C(/C=C/c2ccc(N)cc2)=NN1)OCO3` (centres unmarked) [Example 34, 1-(4-Aminostyryl)-4-methyl-7,8-methylenedioxy-3,4-dihydro-5H-2,3-benzodiazepine] had an inhibition in vivo at 30 mg/kg in data set [2] of 50 to 55%. For the same compound, the change in vivo at 10 mg/kg in data set [1] came to 92%.
In the case of `CCC1c2cc(OC)c(OC)cc2C(/C=C/c2ccc(N)cc2)=NNC1C` (centres unmarked) [Example 35, 1-(4-Aminostyryl)-4-methyl-5-ethyl-7,8-dimethoxy-3,4-dihydro-5H-2,3-benzodiazepine], in data set [2], the inhibition in vivo at 30 mg/kg lay in the range of 30 to 40%.
Compound `CCC1c2cc(OC)c(OC)cc2C(/C=C/c2ccc(N)cc2)=NN(C(C)=O)C1C` (centres unmarked) [Example 38, 1-(4-Aminostyryl)-3-acetyl-4-methyl-5-ethyl-7,8-dimethoxy-3,4-dihydro-5H-2,3-benzodiazepine] gave an inhibition in vivo at 30 mg/kg in data set [2] of 50 to 55%.
On to `COc1cc2c(cc1OC)C(/C=C/c1ccc(NC(C)=O)cc1)=NN(C(C)=O)C(C)C2` (centres unmarked) [Example 39, 1-(4-Acetylaminostyryl)-3-acetyl-4-methyl-7,8-dimethoxy-3,4-dihydro-5H-2,3-benzodiazepine], for which, in data set [3], the “Inhibition (%) 30 minutes” value is recorded as 85.3 ± 15.09%, the “Inhibition (%) 60 minutes” value is 100 ± 0%, the “Inhibition (%) after 30 minutes wash-out” value amounted to 97.5 ± 0.98% and the “duration of action compared to known molecules / GYKI-52466” value is given as “surpass that of GYKI-52466”. In addition, in data set [3], the “efficacy compared to GYKI-52466” value was “at least equal efficacy to the molecule GYKI-52466” and the “effect of 30 minutes wash-out on the inhibition” value is listed as “not able to diminish the effect”. Also, the change in vivo at 10 mg/kg in data set [1] is 113%.
Compound `CC(=O)Nc1ccc(/C=C/C2=NN(C(C)=O)C(C)Cc3cc4c(cc32)OCO4)cc1` (centres unmarked) [Example 40, 1-(4-Acetylaminostyryl)-3-acetyl-4-methyl-7,8-methylenedioxy-3,4-dihydro-5H-2,3-benzodiazepine] had an inhibition in vivo at 30 mg/kg in data set [2] of 30 to 40%. In addition, in data set [3], the “Inhibition (%) 30 minutes” value came to 14.8 ± 7.10%, the “Inhibition (%) 60 minutes” value was 25.8 ± 3.04% and the “Inhibition (%) after 30 minutes wash-out” value was 35.4 ± 2.67%. Also, the change in vivo at 10 mg/kg in data set [1] was 99.7%.
As for `CCC1c2cc3c(cc2C(/C=C/c2ccc(NC(C)=O)cc2)=NN(C(C)=O)C1C)OCO3` (centres unmarked) [Example 41, 1-(4-Acetylaminostyryl)-3-acetyl-4-methyl-5-ethyl-7,8-methylenedioxy-3,4-dihydro-5H-2,3-benzodiazepine], the “acute toxicity (dead/treated animals)” value in the data set on mice (i.p. 300 mg/kg) is listed as 0/5. Also, in the data set on mice (p.o. 1000 mg/kg), the “acute toxicity (dead/treated animals)” value is recorded as 0/5. In data set [3], the “Inhibition (%) 30 minutes” value worked out at 79.5 ± 10.10%, the “Inhibition (%) 60 minutes” value is given as 100 ± 0%, the “Inhibition (%) after 30 minutes wash-out” value was found to be 98.6 ± 2.67% and the “duration of action compared to known molecules / GYKI-52466” value is given as “surpass that of GYKI-52466”. In data set [3], the “efficacy compared to GYKI-52466” value is “at least equal efficacy to the molecule GYKI-52466” and the “effect of 30 minutes wash-out on the inhibition” value is recorded as “not able to diminish the effect”.
Take `COc1cc2c(cc1OC)C(c1cccc(Cl)c1)=NN=C(C)C2` [Girisopam, 1-(3-chlorophenyl)-4-methyl-7,8-dimethoxy-5H-2,3-benzodiazepine, reference compound]: the “acute toxicity (dead/treated animals)” value in the data set with mice (i.p. 300 mg/kg) is given as 0/6.

The record behind these values is US6075018A, “1-[2-(substituted vinyl)]-3,4-dihydro-4-dihydro-5H-2,3-benzodiazepine derivatives” (priority 1995, dated 2000).
